Earlier results as cited in patent US20140271931A1, “Anti-Acne Topical Films” (Perosphere Inc., priority 2013, published 2014).

What was measured:
[1] = system: cultured normal and transformed mammalian cells

SMILES | penetration of the cell interior compared with picolinic acid (cell interior) | solubility in water | inhibition of growth of cultured normal and transformed mammalian cells [1]
CCCCc1ccc(C(=O)O)nc1 [Fusaric acid] | penetrates the cell interior much more easily than picolinic acid | – | –
O=C(O)c1ccccn1 [Picolinic acid, 2-pyridine carboxylic acid] | – | readily soluble in water | inhibits the growth
